US20240166652A1, “MODULATORS OF THE INTEGRATED STRESS PATHWAY” (Calico Life Sciences LLC, priority 2017, published 2024)

Tested on: ATF4 luciferase reporter in HEK293T cells
Experiment: ATF4-Luc assay (ATF4 luciferase reporter, tunicamycin-treated HEK293T cells)
Assay type: cell-based, human
Conditions: HEK293T cells carrying the ATF4 luciferase reporter, 1 μg/mL tunicamycin, 7 hours
Experimental: In order to test exemplary compounds of the invention in a cellular context, a stable VWMD cell line was first constructed. The ATF4 reporter was prepared by fusing the human full-length ATF4 5′-UTR (NCBI Accession No. BC022088.2) in front of the firefly luciferase (FLuc) coding sequence lacking the initiator methionine as described in Sidrauski et al (eLife 2013). The construct was used to produce recombinant retroviruses using standard methods and the resulting viral supernatant was used to transduce HEK293T cells, which were then subsequently selected with puromycin to generate a stable cell line.
HEK293T cells carrying the ATF4 luciferase reporter were plated on polylysine coated 384-well plates (Greiner Bio-one) at 30,000 cells per well. Cells were treated the next day with 1 μg/mL tunicamycin and 200 nM of a compound of Formula (I) for 7 hours. Luminescence was measured using One Glo (Promega) as specified by the manufacturer. Cells were maintained in DMEM with L-glutamine supplemented with 10% heat-inactivated FBS (Gibco) and Antibiotic-Antimycotic solution (Gibco).
Table 2 below summarizes the EC50 data obtained using the ATF4-Luc assay for exemplary compounds of the invention.

| SMILES | EC50 |
| --- | --- |
| O=C(COc1ccc(F)c(F)c1)NC12CCC(NC(=O)COc3ccc(F)c(F)c3)(CC1)[C@@H](O)C2 [Compound 683, N,N′-[(2S)-2-hydroxybicyclo[2.2.2]octane-1,4-diyl]bis[2-(3,4-difluorophenoxy)acetamide]] | < 0.01 µM |

Same assay, conditions: Homo sapiens, HEK-293T; HEK293T cells carrying the ATF4 luciferase reporter, 1 μg/mL tunicamycin, 7 hours

| SMILES | EC50 |
| --- | --- |
| CN(CCC(=O)O)C1CC2(NC(=O)COc3ccc(Cl)c(F)c3)CCC1(NC(=O)COc1ccc(Cl)c(F)c1)CC2 (stereo not drawn) [Compound 698, 3-[{1,4-bis[2-(4-chloro-3-fluorophenoxy)acetamido]bicyclo[2.2.2]octan-2-yl}(methyl)amino]propanoic Acid] | 0.25 to 0.5 µM |
| O=C(CNC(=O)c1ccc(OC(F)(F)F)cn1)NC12CC(NC(=O)COc3ccc(Cl)c(F)c3)(C1)C2 [Compound 386, N-[2-({3-[2-(4-chloro-3-fluorophenoxy)acetamido]bicyclo[1.1.1]pentan-1-yl}amino)-2-oxoethyl]-5-(trifluoromethoxy)pyridine-2-carboxamide] | > 2 µM |
| Cc1cc(OCC(=O)NC23CC(NC(=O)COc4ccc(Cl)c(F)c4)(C2)C3)ncc1Cl [Compound 216, 2-(4-chloro-3-fluorophenoxy)-N-(3-{2-[(5-chloro-4-methylpyridin-2-yl)oxy]acetamido}bicyclo[1.1.1]pentan-1-yl)acetamide] | 0.05 to 0.25 µM |
| CS(=O)(=O)c1ccc(OCC(=O)NC23CCC(NC(=O)COc4ccc(Cl)c(F)c4)(CC2)[C@@H](O)C3)cc1 [Compound 476, 2-(4-chloro-3-fluorophenoxy)-N-[(2S)-2-hydroxy-4-{2-[4-(methanesulfonyl)phenoxy]acetamido}bicyclo[2.2.2]octan-1-yl] acetamide] | 0.05 to 0.25 µM |
| O=C(COc1ccc(Cl)c(F)c1)NC12CC(NC(=O)[C@H](O)CCc3ccccc3)(C1)C2 [Compound 462, (2R)-N-{3-[2-(4-chloro-3-fluorophenoxy)acetamido]bicyclo[1.1.1]pentan-1-yl}-2-hydroxy-4-phenylbutanamide] | > 2 µM |
| O=C(COc1ccc(Cl)c(F)c1)NC12CCC(OCc3ccc(Cl)cc3)(CC1)CC2=O [Compound 564, 2-(4-chloro-3-fluorophenoxy)-N-{4-[(4-chlorophenyl)methoxy]-2-oxobicyclo[2.2.2]octan-1-yl}acetamide] | > 2 µM |
| Cc1ccc(OCC(=O)NC23CCC(NC(=O)COc4ccc(OC(F)(F)F)c(F)c4)(CC2)[C@@H](O)C3)cc1F [Compound 733, 2-(3-fluoro-4-methylphenoxy)-N-[(3S)-4-{2-[3-fluoro-4-(trifluoromethoxy)phenoxy]acetamido}-3-hydroxybicyclo[2.2.2]octan-1-yl]acetamide] | < 0.01 µM |
| O=C(COc1ccc(F)cc1)NC12CCC(NC(=O)COc3ccc(F)c(C(F)(F)F)c3)(CC1)[C@@H](O)C2 [Compound 831, 2-(4-fluorophenoxy)-N-[(3S)-4-{2-[4-fluoro-3-(trifluoromethyl)phenoxy]acetamido}-3-hydroxybicyclo[2.2.2]octan-1-yl]acetamide] | < 0.01 µM |
| O=C(COc1ccc(Cl)c(F)c1)N[C@H]1C(=O)C[C@@]2(NC(=O)COc3ccc(Cl)c(F)c3)CC[C@@H]1C2 [Compound 652, N,N′-[(1R,4R,5R)-3-oxobicyclo[3.2.1]octane-1,4-diyl]bis[2-(4-chloro-3-fluorophenoxy)acetamide]] | 0.01 to 0.05 µM |
| Cc1cc(OCC(=O)NC23CC(NC(=O)COc4ccc(Cl)c(F)c4)(C2)C3)cnc1Cl [Compound 226, 2-(4-chloro-3-fluorophenoxy)-N-(3-{2-[(6-chloro-5-methylpyridin-3-yl)oxy]acetamido}bicyclo[1.1.1]pentan-1-yl)acetamide] | 0.01 to 0.05 µM |
| O=C(COc1ccc(Cl)cc1)NC12CC(NC(=O)COc3cccc(Cl)c3)(C1)C2 [Compound 118, 2-(4-chlorophenoxy)-N-{3-[2-(3-chlorophenoxy)acetamido]bicyclo-[1.1.1]pentan-1-yl}acetamide] | 0.01 to 0.05 µM |
| O=C(COc1ccc(Cl)c(F)c1)NC12CCC(NC(=O)COc3ccc(Cl)c(F)c3)(CC1)C(NC1(CO)COC1)C2 (stereo not drawn) [Compound 701, N,N′-(2-{[3-(hydroxymethyl)oxetan-3-yl]amino}bicyclo[2.2.2]octane-1,4-diyl)bis[2-(4-chloro-3-fluorophenoxy)acetamide]] | 0.01 to 0.05 µM |
| O=C(COc1ccc(Cl)c(F)c1)NC12CC(NCC(=O)c3ccc(Cl)c(Cl)c3)(C1)C2 [Compound 286, 2-(4-chloro-3-fluorophenoxy)-N-(3-{[2-(3,4-dichlorophenyl)-2-oxoethyl]amino}bicyclo[1.1.1]pentan-1-yl)acetamide] | 0.05 to 0.25 µM |
| O=C(COc1ccc(Cl)c(F)c1)NC12CCC(NC(=O)COc3ccc(Cl)c(F)c3)(C1)C2 [Compound 177, N,N′-(bicyclo[2.1.1]hexane-1,4-diyl)bis[2-(4-chloro-3-fluorophenoxy)acetamide]] | < 0.01 µM |
| O=C(COCc1ccc(-n2cccn2)nc1)NC12CC(NC(=O)COc3ccc(Cl)c(F)c3)(C1)C2 [Compound 280, 2-(4-chloro-3-fluorophenoxy)-N-[3-(2-{[6-(1H-pyrazol-1-yl)pyridin-3-yl]methoxy}acetamido)bicyclo[1.1.1]pentan-1-yl]acetamide] | > 2 µM |
| O=C(COc1ccc(Cl)c(F)c1)NC12CC(NC(=O)COc3ccccc3OCCO)(C1)C2 [Compound 805, 2-(4-chloro-3-fluorophenoxy)-N-(3-{2-[2-(2-hydroxyethoxy)phenoxy]acetamido}bicyclo[1.1.1]pentan-1-yl)acetamide] | 0.5 to 2 µM |
| O=C(COc1ccc(F)c(F)c1)NC12CCC(NC(=O)COc3ccc(C(F)(F)F)nc3)(CC1)C(O)C2 (stereo not drawn) [Compound 359, 2-(3,4-difluorophenoxy)-N-[3-hydroxy-4-(2-{[6-(trifluoromethyl)pyridin-3-yl]oxy}acetamido)bicyclo[2.2.2]octan-1-yl]acetamide] | 0.01 to 0.05 µM |
| NC1CC2(NC(=O)COc3ccc(Cl)c(F)c3)CCC1(NC(=O)COc1ccc(Cl)c(F)c1)CC2 (stereo not drawn) [Compound 357, N,N′-(2-aminobicyclo[2.2.2]octane-1,4-diyl)bis[2-(4-chloro-3-fluorophenoxy)acetamide]] | < 0.01 µM |
| O=C(COc1ccc(F)c(OC(F)F)c1)NC12CCC(NC(=O)COc3ccc(Cl)c(F)c3)(CC1)[C@@H](O)C2 [Compound 808, 2-(4-chloro-3-fluorophenoxy)-N-[(2S)-4-{2-[3-(difluoromethoxy)-4-fluorophenoxy]acetamido}-2-hydroxybicyclo[2.2.2]octan-1-yl]acetamide] | < 0.01 µM |
| O=C(COc1ccnc(C(F)(F)F)c1)NC12CC(NC(=O)COc3ccc4c(c3)OC(F)(F)O4)(C1)C2 [Compound 265, 2-[(2,2-difluoro-2H-1,3-benzodioxol-5-yl)oxy]-N-[3-(2-{[2-(trifluoromethyl)pyridin-4-yl]oxy}acetamido)bicyclo[1.1.1]pentan-1-yl]acetamide] | 0.01 to 0.05 µM |
| O=C(COc1ccc(F)c(Cl)c1)NC12CC(NC(=O)COc3ccc(F)c(Cl)c3)(C1)C2 [Compound 547, N,N′-(bicyclo[1.1.1]pentane-1,3-diyl)bis[2-(3-chloro-4-fluorophenoxy)acetamide]] | < 0.01 µM |
| O=C(COc1ccc(Cl)c(F)c1)NC12CCC(OCCc3ccc(Cl)cc3)(CC1)CC2O (stereo not drawn) [Compound 611, 2-(4-chloro-3-fluorophenoxy)-N-{4-[2-(4-chlorophenyl)ethoxy]-2-hydroxybicyclo[2.2.2]octan-1-yl}acetamide] | 0.01 to 0.05 µM |
| O=C(COc1ccc(Cl)c(F)c1)NC12CCC(NC(=O)COc3cncc(C(F)(F)F)c3)(CC1)C(O)C2 (stereo not drawn) [Compound 306, 2-(4-chloro-3-fluorophenoxy)-N-[3-hydroxy-4-(2-{[5-(trifluoromethyl)pyridin-3-yl]oxy}acetamido)bicyclo[2.2.2]octan-1-yl]acetamide] | < 0.01 µM |
| O=C(CCCc1cccc(Cl)c1)NC12CC(NC(=O)COc3ccc(Cl)c(F)c3)(C1)C2 [Compound 543, N-{3-[2-(4-chloro-3-fluorophenoxy)acetamido]bicyclo[1.1.1]pentan-1-yl}-4-(3-chlorophenyl)butanamide] | 0.05 to 0.25 µM |
| O=C(COc1ccc(F)cc1)NC12CCC(NC(=O)COc3ccc(F)c(F)c3)(CC1)[C@@H](O)C2 [Compound 617, 2-(3,4-difluorophenoxy)-N-{(2S)-4-[2-(4-fluorophenoxy)acetamido]-2-hydroxybicyclo[2.2.2]octan-1-yl}acetamide] | < 0.01 µM |
| CC(C)(O)C1CC2(NC(=O)COc3ccc(Cl)c(F)c3)CCC1(NC(=O)COc1ccc(Cl)c(F)c1)CC2 (stereo not drawn) [Compound 566, N,N′-[2-(2-hydroxypropan-2-yl)bicyclo[2.2.2]octane-1,4-diyl]bis[2-(4-chloro-3-fluorophenoxy)acetamide]] | 0.01 to 0.05 µM |
| O=C(COc1ccc(Cl)c(F)c1)NC12CCC(NC(=O)COc3ccc(C(F)(F)F)nc3)(CC1)C(O)C2 (racemic) [Compound 301, 2-(4-chloro-3-fluorophenoxy)-N-[3-hydroxy-4-(2-{[6-(trifluoromethyl)pyridin-3-yl]oxy}acetamido)bicyclo[2.2.2]octan-1-yl]acetamide] | < 0.01 µM |
| CC(=O)O[C@@H]1CC2(NC(=O)COc3ccc(Cl)c(F)c3)CCC1(NC(=O)COc1ccc(Cl)c(F)c1)CC2 (single isomer, unassigned) [Compound 449] | 0.01 to 0.05 µM |
| O=C(COc1ccc(F)c(C(F)(F)F)c1)NC12CCC(NC(=O)COc3ccc(F)cc3)(CC1)[C@@H](O)C2 [Compound 847, 2-(4-fluorophenoxy)-N-[(2S)-4-{2-[4-fluoro-3-(trifluoromethyl)phenoxy]acetamido}-2-hydroxybicyclo[2.2.2]octan-1-yl]acetamide] | < 0.01 µM |
